Tests used:
Details in all cases: Compound concentration 10.0 uM
[1] = target: Type-2 angiotensin II receptor (Homo sapiens) (UniProt P50052); assay: AT2 (h) CEREP ligand profiling
[2] = target: C-C chemokine receptor type 1 (Homo sapiens) (UniProt P32246); assay: CCR1 (h) CEREP ligand profiling
[3] = target: Cholecystokinin receptor type A (Homo sapiens) (UniProt P32238); assay: CCKA (h) CEREP ligand profiling

Measured: inhibition

Chain of Cholecystokinin receptor type A (Homo sapiens) (P32238 whole entry): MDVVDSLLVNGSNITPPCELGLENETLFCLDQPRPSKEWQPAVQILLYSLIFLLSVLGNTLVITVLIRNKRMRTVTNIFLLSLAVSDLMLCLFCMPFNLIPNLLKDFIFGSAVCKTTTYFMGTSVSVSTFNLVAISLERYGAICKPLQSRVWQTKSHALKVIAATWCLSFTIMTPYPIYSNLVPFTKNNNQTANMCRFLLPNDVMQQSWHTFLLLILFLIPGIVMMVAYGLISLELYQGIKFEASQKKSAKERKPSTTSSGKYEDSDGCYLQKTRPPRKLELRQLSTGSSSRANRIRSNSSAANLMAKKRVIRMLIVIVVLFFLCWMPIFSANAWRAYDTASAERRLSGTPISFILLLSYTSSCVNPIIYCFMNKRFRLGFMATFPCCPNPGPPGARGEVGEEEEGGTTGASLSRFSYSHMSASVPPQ
Chain of Type-2 angiotensin II receptor (Homo sapiens) (P50052 whole entry): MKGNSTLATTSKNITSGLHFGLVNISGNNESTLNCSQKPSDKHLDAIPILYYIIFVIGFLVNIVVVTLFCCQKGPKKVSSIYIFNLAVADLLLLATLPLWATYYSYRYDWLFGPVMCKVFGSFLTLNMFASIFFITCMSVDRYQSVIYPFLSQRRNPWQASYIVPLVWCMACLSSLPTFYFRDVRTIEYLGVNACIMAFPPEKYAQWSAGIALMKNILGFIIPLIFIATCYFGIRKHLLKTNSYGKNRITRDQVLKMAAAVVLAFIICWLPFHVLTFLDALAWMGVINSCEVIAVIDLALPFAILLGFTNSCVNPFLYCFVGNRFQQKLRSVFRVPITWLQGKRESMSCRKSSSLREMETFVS
Chain of C-C chemokine receptor type 1 (Homo sapiens) (P32246 whole entry): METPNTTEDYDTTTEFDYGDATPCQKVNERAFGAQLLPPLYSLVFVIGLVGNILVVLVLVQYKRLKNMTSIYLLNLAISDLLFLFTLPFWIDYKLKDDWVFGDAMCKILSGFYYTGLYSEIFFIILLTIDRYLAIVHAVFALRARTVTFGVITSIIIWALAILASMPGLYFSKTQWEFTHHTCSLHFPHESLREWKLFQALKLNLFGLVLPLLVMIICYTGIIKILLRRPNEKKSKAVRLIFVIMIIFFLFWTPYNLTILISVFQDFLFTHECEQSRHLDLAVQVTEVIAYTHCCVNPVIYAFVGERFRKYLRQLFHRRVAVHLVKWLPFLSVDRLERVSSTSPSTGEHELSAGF

CCC(=N\O)/C(C)=C/c1ccc(F)cc1 [A-079]
inactive: [1] -9% | [2] 1% | [3] 29%

From ChEMBL document CHEMBL4507256 (2021)
